Laboratory results reported in PubChem BioAssay AID1919008 (Molecular Pharmacology Branch, DTP, NCI, 2023).
pIC50: −log10 of the molar value.

Tested on: DMS-114 complex spheroids with HUVEC/MSC, growth % test/control
Assay: Anticancer human tumor DMS-114 cell line growth inhibition [AhR];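 further: spheroids exposed to agents for 7 days before readout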;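 on viability, T/C: 100% = DMSO vehicle control wells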
Settings: for pIC50: curve of first compound; for viability, T/C: stronger effect = lower value
Method in brief: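 Agents were dosed in half-log steps down from roughly clinical Cmax, or from 10 microM where Cmax was unknown, alone and with AhR antagonists. Read-out: percent test/control growth of tumor spheroids containing HUVEC and MSC stromal cells.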

[1] = second compound 0.1 µM, first compound 0.0316 µM
[2] = second compound 0.1 µM, first compound 0.1 µM
[3] = second compound 0.1 µM, first compound 0.316 µM
[4] = second compound 0.1 µM, first compound 1 µM
[5] = second compound 0.316 µM, first compound 0.0316 µM
[6] = second compound 0.316 µM, first compound 0.1 µM
[7] = second compound 0.316 µM, first compound 0.316 µM
[8] = second compound 0.316 µM, first compound 1 µM
[9] = second compound 1 µM, first compound 0.0316 µM
[10] = second compound 1 µM, first compound 0.1 µM
[11] = second compound 1 µM, first compound 0.316 µM
[12] = second compound 1 µM, first compound 1 µM
[13] = second compound 3.16 µM, first compound 0.0316 µM
[14] = second compound 3.16 µM, first compound 0.1 µM
[15] = second compound 3.16 µM, first compound 0.316 µM
[16] = second compound 3.16 µM, first compound 1 µM
[17] = second compound 10 µM, first compound 0.0316 µM
[18] = second compound 10 µM, first compound 0.1 µM
[19] = second compound 10 µM, first compound 0.316 µM
[20] = second compound 10 µM, first compound 1 µM
[21] = second compound 0.1 µM, first compound 3.16 µM
[22] = second compound 0.1 µM, first compound 10 µM
[23] = second compound 0.316 µM, first compound 3.16 µM
[24] = second compound 0.316 µM, first compound 10 µM
[25] = second compound 1 µM, first compound 3.16 µM
[26] = second compound 1 µM, first compound 10 µM
[27] = second compound 3.16 µM, first compound 3.16 µM
[28] = second compound 3.16 µM, first compound 10 µM
[29] = second compound 10 µM, first compound 3.16 µM
[30] = second compound 10 µM, first compound 10 µM
[31] = second compound 0.1 µM, first compound 0.00949 µM
[32] = second compound 0.1 µM, first compound 0.03 µM
[33] = second compound 0.1 µM, first compound 0.0949 µM
[34] = second compound 0.1 µM, first compound 0.3 µM
[35] = second compound 0.316 µM, first compound 0.00949 µM
[36] = second compound 0.316 µM, first compound 0.03 µM
[37] = second compound 0.316 µM, first compound 0.0949 µM
[38] = second compound 0.316 µM, first compound 0.3 µM
[39] = second compound 1 µM, first compound 0.00949 µM
[40] = second compound 1 µM, first compound 0.03 µM
[41] = second compound 1 µM, first compound 0.0949 µM
[42] = second compound 1 µM, first compound 0.3 µM
[43] = second compound 3.16 µM, first compound 0.00949 µM
[44] = second compound 3.16 µM, first compound 0.03 µM
[45] = second compound 3.16 µM, first compound 0.0949 µM
[46] = second compound 3.16 µM, first compound 0.3 µM
[47] = second compound 10 µM, first compound 0.00949 µM
[48] = second compound 10 µM, first compound 0.03 µM
[49] = second compound 10 µM, first compound 0.0949 µM
[50] = second compound 10 µM, first compound 0.3 µM

CC1COCCN1c1cc(-c2ccnn2C)c2ccnc(-c3ccn[nH]3)c2n1 (stereo not given) + Cc1ccccc1N=Nc1ccc(NC(=O)c2ccnn2C)c(C)c1
pIC50 (second compound 0.1 µM): 6.21
pIC50 (second compound 0.316 µM): 6.30
pIC50 (second compound 1 µM): 6.32
pIC50 (second compound 3.16 µM): 6.31
pIC50 (second compound 10 µM): 6.27
viability, T/C (second compound 0.1 µM, first compound 0.00316 µM): 110%
viability, T/C (second compound 0.1 µM, first compound 0.01 µM): 96.3%
viability, T/C [1]: 98.1%
viability, T/C [2]: 85.8%
viability, T/C [3]: 68.6%
viability, T/C [4]: 37.2%
viability, T/C (second compound 0.316 µM, first compound 0.00316 µM): 94.3%
viability, T/C (second compound 0.316 µM, first compound 0.01 µM): 106%
viability, T/C [5]: 95.2%
viability, T/C [6]: 83.8%
viability, T/C [7]: 58.7%
viability, T/C [8]: 37.2%
viability, T/C (second compound 1 µM, first compound 0.00316 µM): 97.8%
viability, T/C (second compound 1 µM, first compound 0.01 µM): 98.2%
viability, T/C [9]: 101%
viability, T/C [10]: 84.8%
viability, T/C [11]: 57.4%
viability, T/C [12]: 37.3%
viability, T/C (second compound 3.16 µM, first compound 0.00316 µM): 99.7%
viability, T/C (second compound 3.16 µM, first compound 0.01 µM): 101%
viability, T/C [13]: 92.1%
viability, T/C [14]: 81.5%
viability, T/C [15]: 58%
viability, T/C [16]: 37%
viability, T/C (second compound 10 µM, first compound 0.00316 µM): 89.9%
viability, T/C (second compound 10 µM, first compound 0.01 µM): 89.2%
viability, T/C [17]: 89.1%
viability, T/C [18]: 66.2%
viability, T/C [19]: 60.5%
viability, T/C [20]: 41%

CC1COCCN1c1cc(C2(S(C)(=N)=O)CC2)nc(-c2ccnc3[nH]ccc23)n1 (stereo not given) + Cc1ccccc1N=Nc1ccc(NC(=O)c2ccnn2C)c(C)c1
pIC50 (second compound 0.1 µM): < 5.00
pIC50 (second compound 0.316 µM): < 5.00
pIC50 (second compound 1 µM): < 5.00
pIC50 (second compound 3.16 µM): < 5.00
pIC50 (second compound 10 µM): < 5.00
viability, T/C [1]: 107%
viability, T/C [2]: 100%
viability, T/C [3]: 104%
viability, T/C [4]: 109%
viability, T/C [21]: 106%
viability, T/C [22]: 77.6%
viability, T/C [5]: 102%
viability, T/C [6]: 98.1%
viability, T/C [7]: 103%
viability, T/C [8]: 103%
viability, T/C [23]: 92.5%
viability, T/C [24]: 74.1%
viability, T/C [9]: 95.5%
viability, T/C [10]: 94.5%
viability, T/C [11]: 90.6%
viability, T/C [12]: 102%
viability, T/C [25]: 102%
viability, T/C [26]: 71.5%
viability, T/C [13]: 93.3%
viability, T/C [14]: 90.5%
viability, T/C [15]: 99.3%
viability, T/C [16]: 95.4%
viability, T/C [27]: 94.2%
viability, T/C [28]: 68%
viability, T/C [17]: 95.7%
viability, T/C [18]: 90.7%
viability, T/C [19]: 96.2%
viability, T/C [20]: 89.6%
viability, T/C [29]: 86.1%
viability, T/C [30]: 63.1%

COc1ccc([C@@H](O)c2cc(-c3ncnc4cc(N5CCOCC5)ccc34)c(F)cc2Cl)nn1 + Cc1ccccc1N=Nc1ccc(NC(=O)c2ccnn2C)c(C)c1
pIC50 (second compound 0.1 µM): < 5.00
pIC50 (second compound 0.316 µM): < 5.00
pIC50 (second compound 1 µM): < 5.00
pIC50 (second compound 3.16 µM): < 5.00
pIC50 (second compound 10 µM): < 5.00
viability, T/C [1]: 92.6%
viability, T/C [2]: 106%
viability, T/C [3]: 114%
viability, T/C [4]: 121%
viability, T/C [21]: 124%
viability, T/C [22]: 96.6%
viability, T/C [5]: 98.1%
viability, T/C [6]: 95.7%
viability, T/C [7]: 104%
viability, T/C [8]: 104%
viability, T/C [23]: 111%
viability, T/C [24]: 99.8%
viability, T/C [9]: 96.6%
viability, T/C [10]: 92%
viability, T/C [11]: 94.6%
viability, T/C [12]: 114%
viability, T/C [25]: 129%
viability, T/C [26]: 97%
viability, T/C [13]: 96.7%
viability, T/C [14]: 100%
viability, T/C [15]: 91.8%
viability, T/C [16]: 103%
viability, T/C [27]: 112%
viability, T/C [28]: 84.4%
viability, T/C [17]: 94.6%
viability, T/C [18]: 94.2%
viability, T/C [19]: 90.8%
viability, T/C [20]: 91%
viability, T/C [29]: 91.4%
viability, T/C [30]: 53.6%

Nc1ncn(C2CC(O)C(CO)S2)c(=O)n1 (stereo not given) + Cc1ccccc1N=Nc1ccc(NC(=O)c2ccnn2C)c(C)c1
pIC50 (second compound 0.1 µM): < 6.52
pIC50 (second compound 0.316 µM): < 6.52
pIC50 (second compound 1 µM): < 6.52
pIC50 (second compound 3.16 µM): < 6.52
pIC50 (second compound 10 µM): < 6.52
viability, T/C (second compound 0.1 µM, first compound 0.000949 µM): 94.1%
viability, T/C (second compound 0.1 µM, first compound 0.003 µM): 96.7%
viability, T/C [31]: 106%
viability, T/C [32]: 101%
viability, T/C [33]: 98.6%
viability, T/C [34]: 88.6%
viability, T/C (second compound 0.316 µM, first compound 0.000949 µM): 94.9%
viability, T/C (second compound 0.316 µM, first compound 0.003 µM): 96.3%
viability, T/C [35]: 103%
viability, T/C [36]: 105%
viability, T/C [37]: 111%
viability, T/C [38]: 95.5%
viability, T/C (second compound 1 µM, first compound 0.000949 µM): 101%
viability, T/C (second compound 1 µM, first compound 0.003 µM): 102%
viability, T/C [39]: 99.2%
viability, T/C [40]: 105%
viability, T/C [41]: 117%
viability, T/C [42]: 98.9%
viability, T/C (second compound 3.16 µM, first compound 0.000949 µM): 113%
viability, T/C (second compound 3.16 µM, first compound 0.003 µM): 93.4%
viability, T/C [43]: 96.9%
viability, T/C [44]: 105%
viability, T/C [45]: 91.7%
viability, T/C [46]: 91.3%
viability, T/C (second compound 10 µM, first compound 0.000949 µM): 99.4%
viability, T/C (second compound 10 µM, first compound 0.003 µM): 97.3%
viability, T/C [47]: 92.3%
viability, T/C [48]: 94.3%
viability, T/C [49]: 91.7%
viability, T/C [50]: 74.7%

O=C(C=Cn1cnc(-c2cc(C(F)(F)F)cc(C(F)(F)F)c2)n1)NNc1cnccn1 + Cc1ccccc1N=Nc1ccc(NC(=O)c2ccnn2C)c(C)c1
pIC50 (second compound 0.1 µM): 6.08
pIC50 (second compound 0.316 µM): 6.09
pIC50 (second compound 1 µM): 6.04
pIC50 (second compound 3.16 µM): 6.06
pIC50 (second compound 10 µM): 6.01
viability, T/C [31]: 111%
viability, T/C [32]: 114%
viability, T/C [33]: 124%
viability, T/C [34]: 93.4%
viability, T/C (second compound 0.1 µM, first compound 0.949 µM): 45%
viability, T/C (second compound 0.1 µM, first compound 3 µM): 18.2%
viability, T/C [35]: 95.8%
viability, T/C [36]: 125%
viability, T/C [37]: 127%
viability, T/C [38]: 89.1%
viability, T/C (second compound 0.316 µM, first compound 0.949 µM): 45.2%
viability, T/C (second compound 0.316 µM, first compound 3 µM): 17.4%
viability, T/C [39]: 100%
viability, T/C [40]: 124%
viability, T/C [41]: 144%
viability, T/C [42]: 91.6%
viability, T/C (second compound 1 µM, first compound 0.949 µM): 51.8%
viability, T/C (second compound 1 µM, first compound 3 µM): 20.6%
viability, T/C [43]: 99.7%
viability, T/C [44]: 110%
viability, T/C [45]: 124%
viability, T/C [46]: 88%
viability, T/C (second compound 3.16 µM, first compound 0.949 µM): 48.9%
viability, T/C (second compound 3.16 µM, first compound 3 µM): 21.9%
viability, T/C [47]: 98.5%
viability, T/C [48]: 91.5%
viability, T/C [49]: 95.5%
viability, T/C [50]: 75.6%
viability, T/C (second compound 10 µM, first compound 0.949 µM): 51.5%
viability, T/C (second compound 10 µM, first compound 3 µM): 30.4%
